This note sets out measurements from patent US20260184675A1, “CHIRAL ISOMERIC SULFITE COMPOUND AND APPLICATION THEREOF” (Chengdu Hanova BioSciences Co., Ltd, priority 2024, published 2026).

What all share (type): in vivo
One assay relates to eggs of Aleyrodidae. In words: Effect on hatching of eggs of Aleyrodidae, leaf disc method. Particulars: 10 ppm; for Hatching rate (%), Replicate 1 / Hatching rate (%), Replicate 2 / Hatching rate (%), Replicate 3 / Number of hatched larvae 5 days after insecticide delivery, Replicate 1 / Number of hatched larvae 5 days after insecticide delivery, Replicate 2 / Number of hatched larvae 5 days after insecticide delivery, Replicate 3: Aleyrodidae eggs; for Hatching rate (%), Replicate 1 / Hatching rate (%), Replicate 2 / Hatching rate (%), Replicate 3: 5 days after delivery; for Number of hatched larvae 5 days after insecticide delivery, Replicate 1 / Number of hatched larvae 5 days after insecticide delivery, Replicate 2 / Number of hatched larvae 5 days after insecticide delivery, Replicate 3: leaf disc. The gist of the method:
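Leaf discs carrying Aleyrodidae eggs were first examined microscopically to record a baseline egg count. They were then dipped for 10 seconds in compound solution at 10 ppm or in clear water, taken out, and incubated with humidity maintained. Five days after delivery, the number of hatched larvae was recorded to assess hatching inhibition.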

The test system of assay [1] is eggs of Tetranychus urticae. In words: Effect on hatching of eggs of Tetranychus urticae, leaf disc method. The conditions noted are these: 5 ppm; for Hatching rate (%): 5 days after insecticide delivery. The gist of the method: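 This leaf disc test measured inhibition of Tetranychus urticae egg hatching. Eggs laid on Vicia faba discs were counted microscopically, and the discs were soaked for 10 seconds in compound at 5 ppm, with clear water as control. They were incubated under controlled temperature and humidity with strong indirect light, avoiding condensate. Hatched eggs, leaf damage and developmental abnormalities were recorded five days after delivery.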

For assay [2], the system named is eggs of Tetranychus cinnabarinus. The experiment in a line: Control efficacy on eggs of Tetranychus cinnabarinus of compounds compounded with ginger rhizome / Kaempferia galanga L rhizome mixture (Bliss joint action). The conditions noted are these: for joint effect on controlling of eggs of Tetranychus cinnabarinus (in words): compounded with a mixture of ginger rhizome and Kaempferia galanga L rhizome (7:3); for Control efficacy for eggs of Tetranychus cinnabarinus on day 5 (%): single agent. The protocol:
The ginger rhizome extract and volatile oil of Kaempferia galanga L rhizome were used to prepare a mixture of ginger rhizome and Kaempferia galanga L rhizome at a compounding ratio of 7:3, which was then compounded with compound 1, compound 10 and compound 19, and a leaf-disc method was used to evaluate the control efficacy on eggs of Tetranychus cinnabarinus based on the Experimental method in Example 1.
The ginger rhizome extract was prepared by extracting the ginger rhizome using a mixed solvent of ethyl acetate and ethanol at a ratio of 1:4.
According to the concept of independent joint action proposed by Bliss, the theoretical mortality rate P when the pesticides and acaricides are used in mixture can be calculated using the following equation: […]
Pm is the mortality rate (%) of the target when the first active component is used at a concentration of m; and Pn is the mortality rate (%) of the target when the second active component is used at a concentration of n.

As to `CC(COS(=O)OCCF)Oc1ccc(Cl)cc1Cl` (stereo not shown) [Compound 1], in the assay on eggs of Aleyrodidae, the “inhibitory activity on the hatching of eggs of Aleyrodidae (in words)” value (“inhibitory activity … of Aleyrodidae (in words)” for short) is on record as “strong inhibitory activities”; the “Hatching rate (%), Replicate 1” value is listed as 0.00%; the “Hatching rate (%), Replicate 2” value came out at 1.50%; the “Hatching rate (%), Replicate 3” value is reported as 0.00%. Also, in the assay with eggs of Aleyrodidae, the “Number of hatched larvae 5 days after insecticide delivery, Replicate 1” value (“Number of hatched larvae 5 days … Replicate 1” for short) is reported as 0; the “Number of hatched larvae 5 days after insecticide delivery, Replicate 2” value (“Number of hatched larvae 5 days … Replicate 2” below) stood at 2; the “Number of hatched larvae 5 days after insecticide delivery, Replicate 3” value (shortened to “Number of hatched larvae 5 days … Replicate 3”) was found to be 0. Further, the “inhibitory activity on the hatching of eggs of Tetranychus urticae (in words)” value in assay [1] is given as “strong inhibitory activities”. Moreover, in assay [1] (Replicate 1), the “Hatching rate (%)” value is given as 0.94% and the “Number of hatched larvae 5 days after insecticide delivery” value was 1. Moreover, in assay [1] (Replicate 2), the “Hatching rate (%)” value is on record as 1.30% and the “Number of hatched larvae 5 days after insecticide delivery” value was 1. The “joint effect on controlling of eggs of Tetranychus cinnabarinus (in words)” value (“joint effect on controlling” for short) in assay [2] is on record as “synergistic effect”. Moreover, the “Control efficacy for eggs of Tetranychus cinnabarinus on day 5 (%)” value (from here on “Control efficacy for eggs … (%)”) in assay [2] (0.1 mg/L) is listed as 17.12%. Moreover, the “Control efficacy for eggs … (%)” value in assay [2] (0.2 mg/L) is 33.58%. The “Control efficacy for eggs … (%)” value in assay [2] (0.3 mg/L) is on record as 52.19%.
Consider `CC(C)(COc1ccc(Cl)cc1Cl)OS(=O)OCCF` (stereo not shown) [Compound 10], for which, in the assay on eggs of Aleyrodidae, the “inhibitory activity … of Aleyrodidae (in words)” value is reported as “strong inhibitory activities”; the “Hatching rate (%), Replicate 1” value turned out to be 0.76%; the “Hatching rate (%), Replicate 2” value is recorded as 0.00%; the “Hatching rate (%), Replicate 3” value is listed as 1.61%. Also, in the assay on eggs of Aleyrodidae, the “Number of hatched larvae 5 days … Replicate 1” value is listed as 1; the “Number of hatched larvae 5 days … Replicate 2” value is 0; the “Number of hatched larvae 5 days … Replicate 3” value is given as 2. For the same molecule, the “inhibitory activity on the hatching of eggs of Tetranychus urticae (in words)” value in assay [1] is given as “strong inhibitory activities”. For the same molecule, in assay [1] (Replicate 1), the “Hatching rate (%)” value came to 1.94% and the “Number of hatched larvae 5 days after insecticide delivery” value amounted to 2. For the same molecule, in assay [1] (Replicate 2), the “Hatching rate (%)” value worked out at 1.35% and the “Number of hatched larvae 5 days after insecticide delivery” value was found to be 1. In addition, in assay [2], the “joint effect on controlling” value was “synergistic effect”. Further, the “Control efficacy for eggs … (%)” value in assay [2] (0.1 mg/L) came out at 11.45%. Besides, the “Control efficacy for eggs … (%)” value in assay [2] (0.2 mg/L) is reported as 20.79%. Besides, the “Control efficacy for eggs … (%)” value in assay [2] (0.5 mg/L) was 68.12%.
For the molecule `CCC(COc1ccc(Cl)cc1Cl)OS(=O)OCCF` (stereo not shown) [Compound 19], in the assay on eggs of Aleyrodidae, the “inhibitory activity … of Aleyrodidae (in words)” value is given as “strong inhibitory activities”; the “Hatching rate (%), Replicate 1” value stood at 0.00%; the “Hatching rate (%), Replicate 2” value came out at 0.00%; the “Hatching rate (%), Replicate 3” value turned out to be 0.00%. Also, in the assay with eggs of Aleyrodidae, the “Number of hatched larvae 5 days … Replicate 1” value turned out to be 0; the “Number of hatched larvae 5 days … Replicate 2” value was 0; the “Number of hatched larvae 5 days … Replicate 3” value was 0. Also, the “inhibitory activity on the hatching of eggs of Tetranychus urticae (in words)” value in assay [1] is “strong inhibitory activities”. Further, in assay [1] (Replicate 1), the “Hatching rate (%)” value is recorded as 0.00% and the “Number of hatched larvae 5 days after insecticide delivery” value is listed as 0. Moreover, in assay [1] (Replicate 2), the “Hatching rate (%)” value came out at 1.09% and the “Number of hatched larvae 5 days after insecticide delivery” value was 1. In assay [2], the “joint effect on controlling” value is listed as “synergistic effect”. The “Control efficacy for eggs … (%)” value in assay [2] (0.1 mg/L) was 20.57%. Moreover, in assay [2] (0.2 mg/L), the “Control efficacy for eggs … (%)” value is given as 36.14%. Besides, the “Control efficacy for eggs … (%)” value in assay [2] (0.25 mg/L) is given as 48.73%.
In the case of `CC(C)(COS(=O)OCCF)Oc1ccc(Cl)cc1Cl` (stereo not shown) [R-10′], in the assay on eggs of Aleyrodidae, the “Hatching rate (%), Replicate 1” value is 9.77%; the “Hatching rate (%), Replicate 2” value was found to be 10.23%; the “Hatching rate (%), Replicate 3” value was found to be 10.16%; the “Number of hatched larvae 5 days … Replicate 1” value was found to be 13. In addition, in the assay on eggs of Aleyrodidae, the “Number of hatched larvae 5 days … Replicate 2” value is on record as 9 and the “Number of hatched larvae 5 days … Replicate 3” value is 13. In addition, in assay [1] (Replicate 1), the “Hatching rate (%)” value was found to be 17.72% and the “Number of hatched larvae 5 days after insecticide delivery” value is listed as 14. In assay [1] (Replicate 2), the “Hatching rate (%)” value came out at 16.67% and the “Number of hatched larvae 5 days after insecticide delivery” value is on record as 16.
In the case of `CC(C)(COS(=O)OCCF)Oc1ccc(Cl)cc1Cl` (stereo not shown) [S-10′], in the assay with eggs of Aleyrodidae, the “inhibitory activity … of Aleyrodidae (in words)” value is on record as “strong inhibitory activities”; the “Hatching rate (%), Replicate 1” value came to 0.00%; the “Hatching rate (%), Replicate 2” value turned out to be 0.00%; the “Hatching rate (%), Replicate 3” value is reported as 0.00%. In addition, in the assay on eggs of Aleyrodidae, the “Number of hatched larvae 5 days … Replicate 1” value is given as 0; the “Number of hatched larvae 5 days … Replicate 2” value came out at 0; the “Number of hatched larvae 5 days … Replicate 3” value amounted to 0. In assay [1], the “inhibitory activity on the hatching of eggs of Tetranychus urticae (in words)” value is on record as “strong inhibitory activities”. Further, in assay [1] (Replicate 1), the “Hatching rate (%)” value is reported as 0.00% and the “Number of hatched larvae 5 days after insecticide delivery” value was determined as 0. Further, in assay [1] (Replicate 2), the “Hatching rate (%)” value stood at 0.00% and the “Number of hatched larvae 5 days after insecticide delivery” value worked out at 0.
